The values below are quoted from earlier work in patent US10253031B2, “Stable pemetrexed arginine salt and compositions comprising it” (SYNTHON B.V., priority 2013, dated 2019).

Counter-ions that a name gives are not always drawn.

The conditions of this series: background statement.

Regarding `Nc1nc2[nH]cc(CCc3ccc(C(=O)N[C@@H](CCC(=O)O)C(=O)O)cc3)c2c(=O)[nH]1` [Disodium salt of pemetrexed], the Solubility in water entry was “soluble in water”.
`Nc1nc2[nH]cc(CCc3ccc(C(=O)N[C@@H](CCC(=O)O)C(=O)O)cc3)c2c(=O)[nH]1` [pemetrexed diacid, N-[4-[2-(2-amino-4,7-dihydro-4-oxo-1H-pyrrolo [2,3-d]pyrimidin-5-yl)ethyl]benzoyl]-L-glutamic acid]: the Solubility in water entry is given as “sparingly soluble”.
